One assay concerns Pfeiffer (EZH2 A677G). Nature of the assay: In vitro 50% growth inhibition (GI50), MTT/CCK8, Pfeiffer cells. The assay is classed as cell-based, Human. The settings on record: for GI50: Homo sapiens, Pfeiffer, 240 h, Drug treatment for 10 days. The text has this:
(§1) In the present invention, a representative tumor cell line was selected to determine the cell growth inhibition activity of the present compound. Cell culture conditions and methods were in accordance with the requirements for each cell lines. The cells were subcultured in vitro for less than 3 generations each time, and as required, monoclone purification and identification of cell lines could be carried out.
(§2) The cell culture media used were RPMI1640 (Gibco) comprising 5-20% of fetal bovine serum (Gibco), 1% of double-antibiotic and 2 mM of glutamine.
(§3) Suspension culture cells were collected by centrifugation (1700 rpm, 3 minutes), and the supernatant was discarded and the cells were counted. According to each cell growth cycle, different concentrations of cells were prepared (1-10×10^4 cells per ml) and added to 96-well plates (Corning) with 100 μl per well, and then incubated overnight at 37° C., 5% CO2. The next day, the test compound was added to the cultured cells (2 wells in parallel). The final concentration of the solvent was less than 1/1,000. The cells were further cultured for 6 to 12 days and assayed by MTT.
(§4) The compound was stored at a concentration of 10 mM at −20° C. and diluted to two-fold or 10-fold series prior to use.
(§5) For the suspension culture cells, CCK8 was directly added to 10% of the final concentration. The cells were continually incubated for […].
(§6) The experiments were repeated 3 times and a statistical analysis of data was conducted.

Another assay concerns Karpas-422 (EZH2 Y641N). Description: In vitro 50% growth inhibition (GI50), MTT/CCK8, Karpas-422 cells. The assay is classed as cell-based. The settings on record: Homo sapiens, KARPAS-422, 144 h; Drug treatment for 6 days.
Text: as §1, §2, §3, §4, §5, §6

A further assay concerns SU-DHL-8 (EZH2 WT). Description: In vitro 50% growth inhibition (GI50), MTT/CCK8, SU-DHL-8 cells. The assay is classed as cell-based. As to conditions: Homo sapiens, SU-DHL-8, 144 h; Drug treatment for 6 days.
Text: as §1, §2, §3, §4, §5, §6

Consider `C=CC(=O)N1CCC(N(CC)c2cc(C#CCN3CCOCC3)cc(C(=O)NCc3c(C)cc(C)[nH]c3=O)c2C)C1` (stereo not shown) [Example 51, N-(4,6-dimethyl-2-oxo-1,2-dihydro-pyridin-3-ylmethyl)-3-[(1-acryloyl-pyrrolidin-3-yl)-ethyl-amino]-2-methyl-5-[3-(morpholin-4-yl)-propyn-1-yl]-benzamide], for which the GI50 was 1 to 10 nM in the assay on Pfeiffer (EZH2 A677G), 10 to 100 nM with Karpas-422 (EZH2 Y641N) and above 1000 nM with SU-DHL-8 (EZH2 WT).
In the case of `C=CC(=O)N1CCC(N(CCCC)c2cc(Br)cc(C(=O)NCc3c(C)cc(C)[nH]c3=O)c2C)C1` (stereo not shown) [Example 9, 3-[(1-acryloyl-pyrrolidin-3-yl)-butyl-amino]-5-bromo-N-(4,6-dimethyl-2-oxo-1,2-dihydro-pyridin-3-ylmethyl)-2methyl-benzamide], the figures for the GI50 with Pfeiffer (EZH2 A677G), in the assay on Karpas-422 (EZH2 Y641N) and with SU-DHL-8 (EZH2 WT) were 10 to 100 nM, above 1000 nM and above 1000 nM, respectively.
For the molecule `C=CC(=O)N1CCC(N(CC)c2cc(-c3ccc(CN4CCOCC4)c(F)c3)cc(C(=O)NCc3c(C)cc(C)[nH]c3=O)c2C)CC1` [Example 62, N-(4,6-dimethyl-2-oxo-1,2-dihydro-pyridin-3-ylmethyl)-5-[(1-acryloyl-piperidin-4-yl)-ethyl-amino]-3′-fluoro-4-methyl-4′-(morpholin-4-ylmethyl)-[1,1′-biphenyl]-3-carboxamide], the results for the 50% growth inhibitory concentration (GI50) in the assay on Pfeiffer (EZH2 A677G), in the assay with Karpas-422 (EZH2 Y641N) and in the assay on SU-DHL-8 (EZH2 WT) were 1 to 10 nM, 10 to 100 nM and above 1000 nM, respectively.
For `C=CC(=O)N1CCC(N(CC)c2cc(-c3ccc(CN4CCC(OCC)CC4)cc3)cc(C(=O)NCc3c(C)cc(C)[nH]c3=O)c2C)CC1` [Example 88, N-(4,6-dimethyl-2-oxo-1,2-dihydro-pyridin-3-ylmethyl)-5-[(1-acryloyl-piperidin-4-yl)-ethyl-amino]-4-methyl-4′-(4-ethoxypiperidin-1-ylmethyl)-[1,1′-biphenyl]-3-carboxamide], the “growth inhibitory activity / GI50 level against Pfeiffer, in words” value with Pfeiffer (EZH2 A677G) (EZH2 A677G mutant cells Pfeiffer) is “subnanomolar level”. Moreover, the results for the 50% growth inhibitory concentration (GI50) with Pfeiffer (EZH2 A677G), in the assay with Karpas-422 (EZH2 Y641N) and in the assay on SU-DHL-8 (EZH2 WT) were below 1 nM, 10 to 100 nM and above 1000 nM, respectively.
As to `CC#CC(=O)N1CCC(N(CC)c2cc(Br)cc(C(=O)NCc3c(C)cc(C)[nH]c3=O)c2C)C1` (stereo not shown) [Example 15], the results for the concentration for 50% growth inhibition (GI50) with Pfeiffer (EZH2 A677G), in the assay with Karpas-422 (EZH2 Y641N) and with SU-DHL-8 (EZH2 WT) were 1 to 10 nM, 10 to 100 nM and above 1000 nM, respectively.

What is called GI50 is the concentration at which growth is held to half of that of the control. Read a high GI50 as lower sensitivity of the cells.

Values taken from patent US11214561B2, “Histone methyltransferase EZH2 inhibitor, preparation method and pharmaceutical use thereof” (ANCUREALL PHARMACEUTICAL (SHANGHAI) CO., LTD., priority 2017, dated 2022).
